Test results published in patent US20190010461A1, “HUMAN PLURIPOTENT STEM CELL-BASED SCREENING FOR SMOOTH MUSCLE CELL DIFFERENTIATION AND DISEASE” (Wisconsin Alumni Research Foundation, priority 2017, published 2019).

Experiments:
[1] = system: MYH11 promoter-driven luciferase activity; test: High-throughput screening, MYH11-Nluc-2A-Tom reporter human ES cell line, luciferase assay; type: cell-based
Procedure: FIGS. 1A-1C depict a schematic of high-throughput screening. […] The cells were passaged at day 4 and seeded on the 96-well plate for screening (2×10^6 cells/plate). After the reporter cell line was differentiated into mesoderm, small molecules were added to the cells from day 4 to day 14. FIG. 1B depicts the results of the screening in two batches. The luciferase assay results of individual small molecules were normalized to the average reads of all samples for each batch. The small molecules were selected for further analysis when the normalized reads were greater than “average+3×STDEV”. FIG. 1C depicts optimizing the concentration of the selected small molecules.
The cells were treated with 50 ng/ml FGF2 and 20 ng/ml BMP4 for another two days. The cells were passaged at day 4 and seeded on the 96-well plate for screening (2×10^6 cells/plate). The compounds were added from day 4-14. The Luciferase substrate (1000× dilution) (Nano-Glo Luciferase Assay system, Promega) was added to the medium for 15 min and luminescence was measured. An increase in luminescence indicates increased MYH11 expression, which is an indicator of the contractile smooth muscle cell phenotype. The Thomson custom stem cell Modulator 1, GSK-kinase inhibitor library, SellekChem Kinase inhibitor library, Analyticon NATx library, Prestwick Chemical Library, GlaxoSmithKline Protein Kinase Inhibitors, and part of Enamine Representative Diversity library were used for screening.
High-throughput screening directs contractile smooth muscle cell differentiation—The construction of the MYH11-NLuc-tdTomato human ES cell reporter line generated by CRISPR/Cas9 technology is described in FIGS. 6A-6H. The reporter cell line was differentiated into mesoderm in E8BAC medium (Zhang et al., 2017) for two days and treated with FGF2 and BMP4 to further mature mesoderm for another two days. The cells were then passaged into a 96-well plate and exposed to small molecules for 10 days using a customized robotic workstation (FIG. 1A). The workstation was designed through collaboration with TECAN, which enables us to perform the automatic high-throughput screening at specific time point and in long-term. The medium were changed every other day and the small molecules were added during the feeding. […] We then validated these hits and optimized their concentration.

[2] = system: NOTCH1
Procedure: Data are represented as mean±SD, n=3 biological replicates. *, p<0.05, student t-test. […] Cells were treated with RepSox (25 μM) or SiRNA. Comb3: Knockdown of TGFBR1, ACVR1B, and ACVR1C at the same time. Data are represented as mean±SD, n=2 biological replicates. *, p<0.05, student t-test. […] Cells were treated with RepSox (25 μM) or SiRNA. Data are represented as mean±SD, n=2 biological replicates. *, p<0.05, student t-test. […] During the smooth muscle cells differentiation, cells were treated with or without RepSox from day 10-11. […] During the smooth muscle cells differentiation, cells were treated with RepSox for 1 or 20 hours at day 12. […] Data are represented as mean±SD, n=3 biological replicates. *, p<0.05, student t-test. […] Cells were treated with RepSox and non-targeting control (NT)/SiRNA at day 10. The RNA was isolated at day 14.

[3] = system: contractile and ECM genes (MYH11, SMTN, CNN1, ELN, ACTA2, TAGLN, COL1A1); test: RT-qPCR of pluripotent stem cell-derived SMCs; type: cell-based, human; settings: versus previous protocol (Cheung's LM-SMCs)
Excerpt: Data are represented as mean±standard deviation (SD). […] Scale bar=1 mm. […] Scale bar=50 μm. […] Data are represented as mean±SD. Student's t-test, *: P<0.05, n=3.
FIGS. 9A-9B show a comparison of MYH11 expression in RepSox-SMCs and Cheung's LM-SMCs. […] Data are normalized to Cheung's LM-SMCs and represented as mean±SD, n=3 for all the samples except fresh human artery (n=2). *, p<0.05, student t-test.
Optimized smooth muscle cell differentiation—Human pluripotent stem cell cells (H1) were cultured in E8 medium on a […]™-coated plate. To achieve the best differentiation results, ES cells were split using EDTA at 1:4 ratios two days before the differentiation. The cells reached 80-90% confluency two days later. At the day of the differentiation, ES cells were dissociated by ACCUTASE™ (Invitrogen) for 3-5 min at 37 ° C. The cells were plated on a […]™-coated plate at 1:4 ratios (1×10^5 cells/cm2). […] An increased CHIR99021 concentration of 3 μM decreased cell proliferation at 36 hours but increased MYH11 expression. At 36 hours, the cells were passaged and seeded on a new […]™-coated plate (1.6×10^4 cells/cm2). The low cell density is critical for the differentiation. A cell density of 1.0-4.0×10^4 cells/cm2 for different cell lines can be tested, such that 100% cell confluence will be achieved at day 6, which gives rise to the best differentiation efficiency. […]

[4] = system: primary human aortic SMCs (AoSMCs)
Excerpt: Scale bar=500 μm. […] Scale bar=100 μm. […] Data are represented as mean±SD.

Cc1cccc(-c2n[nH]cc2-c2ccc3ncccc3n2)n1 [RepSox, RepSox (SJN 2511)]
effectiveness at promoting MYH11 expression among validated hits ([1]; hits validated, concentration optimized): most effective | promotes MYH11+ SMC differentiation (increased MYH11 promoter-driven luciferase activity) ([1]; small molecules added day 4-14, selected when normalized reads > average+3×STDEV): promotes MYH11^+ SMC differentiation | RepSox treatment time after which increased NOTCH signaling could be detected ([2]; RepSox for 1 or 20 hours at day 12): 1 h | full-length NOTCH1 and intracellular domain (NICD) expression ([2]; treated with or without RepSox day 10-11): enhanced | improvement of MYH11 expression (RT-qPCR) [3]: 23 fold | contractile gene expression of AoSMCs ([4]; 100 μM RepSox for three days versus DMSO): increase | proliferation rate of AoSMCs ([4]; 100 μM RepSox for two days versus DMSO): reduced | contraction ability of AoSMCs ([4]; 100 μM RepSox for two days, then 100 μM carbachol): without affecting | cell migration rate of AoSMCs ([4]; 100 μM RepSox versus DMSO): reduced
